Laboratory results taken from patent US20160193216A1 (Nimbus Iris, Inc., priority 2012, published 2016).
pIC50: −log10 of the molar value. Where two headings read alike, the source gives them in different places.

Legend:
[1] = system: THP-1 cells; experiment: LPS induced cytokine (TNFα and IL8) production assay in THP-1 cells; type: cell-based; details: Homo sapiens, 300 ng/mL LPS
Experimental: Cytokine Production Assay
Provided compounds were also assayed in an LPS (Lipopolysacharide) or R848 (TLR-7 agonist) induced cytokine (TNFα and IL8) production assay in THP-1 cells, human peripheral blood mononuclear cells (hPBMC), and whole blood. The exemplary protocol for this assay in THP-1 cells was as follows below.
THP-1 cells from ATCC (TIB-202) were cultured in RPMI Medium 1640 (Invitrogen, Cat No. A10491-01), 10% fetal bovine serum (Invitrogen, Cat No. 10099141, Lot No. 8172882) containing 100 U/mL Penicillin, 100 μg/mL streptomycin (Invitrogen, Cat No. 15140-122), and 50 uM 2-Mercaptoethanol (Invitrogen, Cat No. 21985023). LPS-EK ultra pure (Invivogen, Cat No. tlrl-peklps) was used to induce IL8 and TNFα production, that was detected in the cell culture supernatant by IL8 HTRF kit (Cisbio, Cat No. 62IL8PEB) and TNFα HTRF kit (Cisbio, Cat No. 62TNFPEB), as per manufacturer instructions. Cells were cultured in 96 well assay plates at 100,000 cells per well, and compounds diluted in final 0.3% DMSO were pre-incubated with cells for 1 hour prior to stimulation with 300 ng/mL LPS. Cytokine production in cell supernatant was measured at 5 hours for TNFα and IL8 production, and for 16 hours for IL8 production and assessment of cell viability.
The compound numbers correspond to the compound numbers in Table 1. […] “NA” stands for “not assayed.”

[2] = target: T1, IRAK4 (Homo sapiens, UniProt Q9NWZ3); experiment: IRAK-4 activity inhibition assay (Caliper); type: biochemical; details: 37 μM ATP, 3.5 nM IRAK4
T1 sequence (Q9NWZ3 1-460): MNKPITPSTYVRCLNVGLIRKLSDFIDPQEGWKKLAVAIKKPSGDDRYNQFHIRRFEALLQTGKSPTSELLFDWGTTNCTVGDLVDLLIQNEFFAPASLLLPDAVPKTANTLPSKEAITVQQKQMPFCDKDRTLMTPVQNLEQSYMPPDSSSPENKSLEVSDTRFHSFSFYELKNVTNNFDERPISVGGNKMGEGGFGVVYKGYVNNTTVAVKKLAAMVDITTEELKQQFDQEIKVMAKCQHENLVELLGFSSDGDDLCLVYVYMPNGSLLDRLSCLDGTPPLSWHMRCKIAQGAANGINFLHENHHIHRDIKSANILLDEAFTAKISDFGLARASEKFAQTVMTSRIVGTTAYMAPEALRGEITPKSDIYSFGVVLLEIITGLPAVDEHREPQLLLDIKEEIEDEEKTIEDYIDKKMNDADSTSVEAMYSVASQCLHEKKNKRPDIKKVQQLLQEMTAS

Row | SMILES | pIC50 [2] | also measured
1 | CN(C)[C@H]1CC[C@H](Oc2nc(Nc3ccccc3)nc3sc4c(c23)C(CC(N)=O)CC4)CC1 (stereo partly shown) [Compound I-204, 2-(12-[[4-(dimethylamino)cyclohexyl]oxy]-10-(phenylamino)-7-thia-9, 11-diazatricyclo[6.4.0.0̂[2,6]]dodeca-1(12),2(6),8, 10-tetraen-3-yl)acetamide] | – | pIC50 ([1]; read-out: IL8 production IC50): 5.30 to 6.00; pIC50 ([1]; read-out: TNFα production IC50): 6.00 to 6.30
2 | CN(C)[C@H]1CC[C@H](Nc2ncnc3sc4c(c23)C(CN2CCCC2)CC4)CC1 (stereo partly shown) [Compound I-10, (1r,4r)-N1,N1-dimethyl-N4-(5-(pyrrolidin-1-ylmethyl)-6,7-dihydro-5H-cyclopenta[4,5]thieno[2,3-d]pyrimidin-4-yl)cyclohexane-1,4-diamine] | 4.30 to 4.70 | –
3 | CCNC(=O)C[C@@H]1CCc2sc3ncnc(O[C@H]4CC[C@H](N(C)C)CC4)c3c21 [Compound I-36, 2-[(3S)-12-[[4-(dimethylamino)cyclohexyl]oxy]-7-thia-9,11-diazatricyclo[6.4.0.0[2,6]]dodeca-1(12),2(6),8,10-tetraen-3-yl]-N-ethylacetamide] | < 4.30 | –
4 | CN(C)[C@H]1CC[C@H](Oc2ncnc3sc4c(c23)CN(C(=O)CC2CC2)CC4)CC1 [Compound I-170, 2-cyclopropyl-1-(3-[[4-(dimethylamino)cyclohexyl]oxy]-8-thia-4,6,12-triazatricyclo[7.4.0.0̂[2,7]]trideca-1(9),2(7),3,5-tetraen-12-yl)ethan-1-one] | 4.70 to 5.30 | –
5 | CN[C@H]1CC[C@H](Oc2ncnc3sc4c(c23)[C@@H](C[C@H](C#N)OC)CC4)CC1 [Compound I-81, (2R)-2-methoxy-3-[(3R)-12-[[4-(methylamino)cyclohexyl]oxy]-7-thia-9,11-diazatricyclo[6.4.0.0[2,6]]dodeca-1(8),2(6),9,11-tetraen-3-yl]propanenitrile] | 4.70 to 5.30 | –
6 | NC(=O)C[C@H]1CCc2sc3ncnc(O[C@H]4CC[C@H](N)CC4)c3c21 [Compound I-150, 2-[(3R)-12-[(4-aminocyclohexyl)oxy]-7-thia-9,11-diazatricyclo[6.4.0.0[2,6]]dodeca-1(12),2(6),8,10-tetraen-3-yl]acetamide] | > 5.30 | –
7 | CN(C)[C@H]1CC[C@H](Oc2ncnc3sc4c(c23)[C@@H](C[C@H](N)C(N)=O)CC4)CC1 [Compound I-160, (2S)-2-amino-3-[(3R)-12-[[4-(dimethylamino)cyclohexyl]oxy]-7-thia-9,11-diazatricyclo[6.4.0.0[2,6]]dodeca-1(8),2(6),9,11-tetraen-3-yl]propanamide] | > 5.30 | –
8 | CC(=O)N1CCc2sc3ncnc(O[C@H]4CC[C@H](N5CCOCC5)CC4)c3c2C1 [Compound I-171, 1-(3-[[4-(morpholin-4-yl)cyclohexyl]oxy]-8-thia-4,6,12-triazatricyclo[7.4.0.0[2,7]]trideca-1(9),2(7),3,5-tetraen-12-yl)ethan-1-one] | 4.70 to 5.30 | –
9 | CNC1CCC(Oc2ncnc3sc4c(c23)[C@@H](C[C@H](N)C(N)=O)CC4)CC1 (stereo partly drawn) [Compound I-146, (2S)-2-amino-3-[(3R)-12-[[4-(methylamino)cyclohexyl]oxy]-7-thia-9,11-diazatricyclo[6.4.0.0[2,6]]dodeca-1(8),2(6),9,11-tetraen-3-yl]propanamide] | > 5.30 | –
10 | C[C@]1(N)CC[C@H](Oc2ncnc3sc4c(c23)[C@@H](CC(N)=O)CC4)CC1 [Compound I-161, 2-[(3R)-12-[(4-amino-4-methylcyclohexyl)oxy]-7-thia-9,11-diazatricyclo[6.4.0.0[2,6]]dodeca-1(8),2(6),9,11-tetraen-3-yl]acetamide] | 4.70 to 5.30 | –
11 | CCNC(=O)CC1CCc2sc3ncnc(N[C@H]4CC[C@H](N(C)C)CC4)c3c21 (stereo partly shown) [Compound I-23, 2-(12-[[4-(dimethylamino)cyclohexyl]amino]-7-thia-9,11-diazatricyclo[6.4.0.0̂[2,6]]dodeca-1(8),2(6),9,11-tetraen-3-yl)-N-ethylacetamide] | 4.70 to 5.30 | –
12 | OC[C@@H]1CCc2sc3ncnc(N[C@H]4CC[C@H](N5CCOCC5)CC4)c3c2C1 [Compound I-211, [(12R)-3-[[4-(morpholin-4-yl)cyclohexyl]amino]-8-thia-4,6-diazatricyclo[7.4.0.0[2,7]]trideca-1(9),2,4,6-tetraen-12-yl]methanol] | > 5.30 | –
13 | CC[C@]1(N(C)C)CC[C@H](Oc2ncnc3sc4c(c23)[C@@H](C[C@@H](C)O)CC4)CC1 [Compound I-102, (2R)-1-[(3R)-12-[[4-(dimethylamino)-4-ethylcyclohexyl]oxy]-7-thia-9,11-diazatricyclo[6.4.0.0[2,6]]dodeca-1(12),2(6),8,10-tetraen-3-yl]propan-2-ol] | > 5.30 | –
14 | NC(=O)CC[C@H]1CCCc2sc3ncnc(O[C@H]4CC[C@H](N)CC4)c3c21 [Compound I-153, 3-((R)-4-(((1r,4R)-4-aminocyclohexyl)oxy)-5,6,7,8-tetrahydrobenzo[4,5]thieno[2,3-d]pyrimidin-5-yl)propanamide] | > 5.30 | –
15 | CN(CC(=O)N1CCCC1)[C@H]1CC[C@H](Nc2ncnc3sc4c(c23)[C@@H](CCO)CC4)CC1 [Compound I-116, 2-(((1R,4r)-4-(((R)-5-(2-hydroxyethyl)-6,7-dihydro-5H-cyclopenta[4,5]thieno[2,3-d]pyrimidin-4-yl)amino)cyclohexyl)(methyl)amino)-1-(pyrrolidin-1-yl)ethanone] | > 5.30 | –
16 | CCCOC(=O)N1CCc2sc3ncnc(N[C@H]4CC[C@H](N5CCOCC5)CC4)c3c2C1 [Compound I-186, propyl 3-[[4-(morpholin-4-yl)cyclohexyl]amino]-8-thia-4,6, 12-triazatricyclo[7.4.0.0[2,7]]trideca-1(9),2(7),3,5-tetraene-12-carboxylate] | > 5.30 | –
17 | CN(C)[C@H]1CC[C@H](Oc2ncnc3sc4c(c23)[C@@H](COCC(N)=O)CC4)CC1 [Compound I-76, 2-[[(3S)-12-[[4-(dimethylamino)cyclohexyl]oxy]-7-thia-9,11-diazatricyclo[6.4.0.0[2,6]]dodeca-1(8),2(6),9,11-tetraen-3-yl]methoxy]acetamide] | > 5.30 | –

The next lines start with results.

Row | pIC50 [2] | SMILES | also measured
18 | > 5.30 | CN[C@H]1CC[C@H](Oc2ncnc3sc4c(c23)[C@@H](CCC(N)=O)CCC4)CC1 [Compound I-162, 3-((R)-4-(((1r,4R)-4-(methylamino)cyclohexyl)oxy)-5,6,7,8-tetrahydrobenzo[4,5]thieno[2,3-d]pyrimidin-5-yl)propanamide] | –
19 | > 5.30 | CN(C)[C@H]1CC[C@H](Oc2ncnc3sc4c(c23)C(CCO)CC4)CC1 (stereo partly shown) [Compound I-21, 2-(4-(((1r,4r)-4-(dimethylamino)cyclohexyl)oxy)-6,7-dihydro-5H-cyclopenta[4,5]thieno[2,3-d]pyrimidin-5-yl)ethanol] | –
20 | > 5.30 | NC(=O)C[C@H]1CCc2sc3ncnc(O[C@H]4CC[C@H](N5CCNCC5)CC4)c3c21 [Compound I-131, 2-[(3R)-12-[[4-(piperazin-1-yl)cyclohexyl]oxy]-7-thia-9,11-diazatricyclo[6.4.0.0[2,6]]dodeca-1(12),2(6),8,10-tetraen-3-yl]acetamide] | –
21 | > 5.30 | CN(C)[C@H]1CC[C@H](Oc2ncnc3sc4c(c23)[C@@H](CCc2ncco2)CC4)CC1 [Compound I-63, N,N-dimethyl-4-[[(3S)-3-[2-(1,3-oxazol-2-yl)ethyl]-7-thia-9,11-diazatricyclo[6.4.0.0[2,6]]dodeca-1(8),2(6),9,11-tetraen-12-yl]oxy]cyclohexan-1-amine] | –
22 | > 5.30 | NC(=O)C[C@H]1CCc2sc3ncnc(O[C@H]4CC[C@H](N5CCN(Cc6ccccc6)CC5)CC4)c3c21 [Compound I-122, 2-[(3R)-12-[[4-(4-benzylpiperazin-1-yl)cyclohexyl]oxy]-7-thia-9,11-diazatricyclo[6.4.0.0[2,6]]dodeca-1(12),2(6),8,10-tetraen-3-yl]acetamide] | –
23 | > 5.30 | CN(C)[C@H]1CC[C@H](Oc2ncnc3sc4c(c23)CC(CC(N)=O)CC4)CC1 (single isomer, unassigned) [Compound I-112] | –
24 | > 5.30 | CCCOC(=O)N1CCc2sc3ncnc(O[C@H]4CC[C@H](N(C)C)CC4)c3c2C1 [Compound I-184, propyl 3-[[4-(dimethylamino)cyclohexyl]oxy]-8-thia-4,6, 12-triazatricyclo[7.4.0.0[2,7]]trideca-1(9),2(7),3,5-tetraene-12-carboxylate] | –
